Source: patent EP1257552B1, “XANTHINE DERIVATIVES, INTERMEDIATES AND USE FOR TREATING OSTEOPOROSIS” (Aventis Pharma S.A., priority 2000, dated 2001)

Assays:
Type in all cases: in vivo
OS TIBIA = assay: Bone mineral density (DEXA) of the tibia in the ovariectomised rat osteopenia model, preventive treatment; settings: once daily, 5 days/week for 4 weeks, (BMD treated - BMD OVX)/(BMD SHAM - BMD OVX) x 100
Experimental: (§1) L'impact osseux de ces dérivés xanthine a été évalué sur un modèle d'ostéopénie, la rate ovariectomisée à l'âge de 3 mois, afin de déterminer ses effets sur la masse osseuse, et sur l'activité de formation et de résorption osseuse. Les animaux sont traités en préventif.
(§2) Sur ce modèle d'ostéopénie l'effet de ces dérivés xanthine est comparé à celui de la PTH • Produit à tester : composé de l'exemple 1 • véhicule(s) : méthylcellulose 0,5 % ou sérum physiologique • dose(s) : 10 mg/kg pour le produit. la PTH est administrée à la dose de 10 µg ou 25 µg/kg/j par voie sous cutanée • nombre d'administrations : une fois/jour; 5 jours/semaine pendant 4 semaines • voie d'administration : voie orale pour le produit. La PTH est administrée par voie sous cutanée • volume : 1 ml/kg p o et s c • délai entre l'injection et le sacrifice : 24 heures • nombre d'administrations : 20
(§3) Des rats femelles âgées de 3 mois et pesant environ 250-300 g sont ovariectomisées sous anesthésie à l'Imalgène 1000, à la dose de 100 mg/kg par voie intrapéritonéale (i.p) et sous un volume de 1 ml/kg. Ils reçoivent également du Nembutal (3 mg/kg i.p. sous un volume de 0,3 ml/kg). Les animaux sont répartis en groupes de 8 rats. Après incision latérale, les plans cutanés et musculaires sont sectionnés. L'exérèse de chaque ovaire se fait après ligature de l'oviducte. Les rats "SHAM" sont anesthésiés dans les mêmes conditions. Après incision des plans cutanés et musculaires, chaque ovaire est exposé puis replacé in situ.
(§4) Les effets des produits sont déterminés après un traitement préventif. Les traitements débutent 24 heures après ovariectomie. Les animaux sont traités pendant 4 semaines, et se répartissent de la façon suivante : • un groupe témoin Sham recevant le ou les véhicules • un groupe témoin OVX recevant le ou les véhicules • OVX + dérivé xanthine • OVX + PTH
La masse osseuse (BMD ou Bone Mineral Density = densité minérale osseuse) est mesurée par absorptiométrie biphotonique à rayons X à double énergie (DEXA). Les mesures sont réalisées sur les os excisés et débarrassés de tous les tissus mous. […]

UTERUS = assay: Uterus weight in the ovariectomised rat osteopenia model; settings: 4 weeks, weight increase in % of uterus weight of OVX animals receiving solvent only
Experimental: as §1, §2, §3, §4
Les utérus sont prélevés. Ces derniers sont pesés. L'augmentation du poids est exprimée, en % du poids de l'utérus des animaux ovariectomisés ne recevant que le solvant. • au niveau osseux : […]

Cholestérol = assay: Serum cholesterol level in the ovariectomised rat osteopenia model; settings: 4 weeks, decrease of serum cholesterol in % versus OVX animals receiving solvent only
Experimental: as §1, §2, §3, §4
Au terme des 4 semaines de traitement, les animaux sont décapités par guillotine. Les sérums recueillis après centrifugation sont conservés à -20°C. […]

Row | Compound | OS TIBIA Densité % (OS TIBIA; 10 mg/kg po) [%] | UTERUS Poids % (UTERUS; 10 mg/kg po) [%] | Cholestérol % (Cholestérol; 10 mg/kg po) | OS TIBIA Densité % (OS TIBIA; 10 µg/kg sc) [%] | OS TIBIA Densité % (OS TIBIA; 25 µg/kg sc) [%] | UTERUS Poids % (UTERUS; 10 µg/kg sc) | UTERUS Poids % (UTERUS; 25 µg/kg sc) [%] | Cholestérol % (Cholestérol; 10 µg/kg sc) | Cholestérol % (Cholestérol; 25 µg/kg sc)
1 | O=c1c2[nH]cnc2n(-c2ccccc2)c(=O)n1Cc1ccncc1 [ex 1, chlorhydratede 3,7-dihydro-3-phényl-1-(4-pyridinylméthyl)-1H-purine-2,6-dione] | 60 | 15 | Pas d'effet | – | – | – | – | – | –
2 | PTH | – | – | – | 69 | 100 | Pas d'effet | 9 | Pas d'effet | Pas d'effet
